From patent publication US20110287936A1, “GENE SWITCH COMPOSITIONS AND METHODS OF USE” (priority 2010, published 2011) come the findings set out here.

Assay [1] concerns tetA promoter (PtetA)-lacZ reporter in E. coli strain KM3. Type of assay: cell-based. The following applies: L1 hits, 20 μg/ml.
Assay [2] has as its system 35S PRO:3xTetOp:dsRED reporter with ESR(L13-2-23). Description: Rice callus RFP induction by sulfonylureas. Type of assay: in vivo. The following applies: for RFP Score: 20 hours, rice callus. The protocol:
Mature seed of rice were surface sterilized and placed on callus induction medium (Chu (N6) salts, Eriksson's vitamins, 0.5 mg/L thiamine, 2 mg/L 2,4-D, 2.1 g/L proline, 30 g/L sucrose, 300 mg/L casein hydrolysate, and 100 mg/L myo-inositol, adjusted to pH 5.8). After one week, callus was transformed using Agrobacterium LBA4404, delivering the following T-DNA: • RB-35S PRO:3xTetOp:dsRED::pinII+35S PRO::Adh intron::ESR(L13-2-23)::UBI TERM+Sb-ALS PRO::HRA::pinII-LB
Transgenic events were visually selected as […] calli growing on 100 PPB ethametsulfuron. […] Non-fluorescing events were then transferred to plates of medium containing varying amounts of sulfonylureas (SU). For the control, there was no SU, with additional treatments containing 100 or 500 ppb chlorsulfuron, and 100 or 500 ppb ethametsulfuron, After 20 hours of the induction treatment, micrographs were taken at the same exposure and scored (see Example 7 for scoring criteria) as shown in the table below
(§1) The BSV::tetOp promoter and the MP1::tetOp promoter were synthesized and cloned into expression cassettes driving expression of the DsRED (RFP) gene for testing. For all comparisons of RFP expression, side-by-side comparisons were made within experiment by taking micrographs of the tissue at the same exposure and qualitatively ranking fluorescence intensity, assigning the scores in the table below. The DsRED protein is very stable (has a relatively long half-life), and even with low expression levels in the cell can accumulate over time.

Assay [3] concerns BSV(AY) PRO::tetOp::ODP2 with ESR(3E3). In words: Inducible callus initiation from maize leaf pieces. In kind it is in vivo. The following applies: 100 mg/L chlorsulfuron, two weeks. The procedure:
Immature maize embryos from maize inbred PHN46 were transformed as describe in Example 5D using Agrobacterium comprising the following: • RB-BSV(AY) PRO::tetOp::Adh1 Intron::ODP2::pinII+35S ENH::ALS PRO::HRA::pinII+Ubi Pro::ESR(3E3)::pinII-LB.
Events were selected on 100 μg/l chlorsulfuron, and plantlets were regenerated in the absence of the SU compound. When the plantlets were approximately 20 cm tall, the leaves were cut into approximately 2-4 mm cross-sections and placed on embryogenic culture medium+/−100 mg/L chlorsulfuron.

In assay [4] the test system is BSV:tetOp or 35S:tetOp::dsRed with Ubi:ESR(3E3). Description: Maize callus RFP de-repression on chlorsulfuron selection. In kind it is in vivo.
From the text: as §1
Maize immature embryos were transformed with Agrobacterium as generally described in Example 5D. Transformants were generated that contained one of the two T-DNAs shown below: • RB-BSV:tetOp::Adh Intron::dsRed+ALS:HRA+Ubi:ESR(3E3)-LB • RB-35S:tetOp::Adh intron::dsRed+ALS:HRA+Ubi::ESR(3E3)-LB
Selection of transgenic events was performed using 30, 100, or 500 μg/L chlorsulfuron.

The test system of assay [5] is 35S/TripleOp/Pro::RFP reporter. Description: Maize callus and seedling RFP de-repression. In kind it is in vivo. The following applies: 1 mg/l doxycycline; callus and plants with UBI::TetR expression cassette.
Assay [6] has as its system 35S PRO:tetOp::moCRE with ESR(L13-2-23), loxP AmCYAN/ZsYELLOW reporter. Description: Ethametsulfuron-induced Cre excision in rice callus. The settings on record: rice calli, 250 μg/L ethametsulfuron, one week.
Description: (§2) Herbicide-resistant, blue fluorescent co-transformed calli were recovered and tested for SU-inducible excision. Calli were split onto media+/−250 μg/L ethametsulfuron.
For assay [7] the test system is unchanged. Description: Ethametsulfuron-induced Cre excision in maize callus. The following applies: maize calli, 250 μg/L ethametsulfuron, one week.
Description: as §2
For assay [8], the system named is 35S PRO:tetOp::moCRE with ESR(L13-2-23), lox66/lox71 AmCYAN/ZsYELLOW reporter. Description: Ethametsulfuron-induced Cre inversion in maize callus. The settings on record: 250 μg/L ethametsulfuron, one week.

Each structure is given as a SMILES string.

For `CCOC(=O)c1ccccc1S(=O)(=O)NC(=O)Nc1nc(Cl)cc(OC)n1` [chlorimuron, Chlorimuron-ethyl], the “potency as activator compared with Harmony®” value in assay [1] is “more potent activators than the starting ligand Harmony®”.

On to `COc1nc(C)nc(NC(=O)NS(=O)(=O)c2ccccc2Cl)n1` [chlorsulfuron, 2 chloro N((4 methoxy 6 methy 1,3,5 triazine 2 yl)aminocarbonyl)benzenesulfonamide], for which the “potency as activator compared with Harmony®” value in assay [1] is “more potent activators than the starting ligand Harmony®”. Also, the “RFP Score” value in assay [2] (100 ppb) is 0-1; in assay [2] (500 ppb) it was 2-3; in assay [4] (30 μg/l, six weeks), 0. Further, in assay [3], the “callus initiation from leaf pieces” value is on record as “producing callus from the leaf segments”. Besides, the RFP fluorescence entry in assay [4] (100 μg/l, six weeks) was “small sectors of RFP fluorescence were observed”; in assay [4] (500 μg/l, six weeks) it was “large segments of the calli were brightly fluorescing”. For the same molecule, the “activity as inducer of the ethametsulfuron repressor, fold less” value in assay [4] (in vivo) is given as “approximately 10 fold”.

Turning to `C[C@H]1c2cccc(O)c2C(=O)C2=C(O)[C@]3(O)C(=O)C(C(N)=O)=C(O)[C@@H](N(C)C)[C@@H]3[C@@H](O)[C@@H]21` [doxycycline], the induction period in assay [5] was in the range of 5 to 6 days.

For the molecule `CCOc1nc(NC)nc(NC(=O)NS(=O)(=O)c2ccccc2C(=O)OC)n1` [ethametsulfuron, Ethametsulfuron-methyl], in assay [1], the “potency as activator compared with Harmony®” value is on record as “more potent activators than the starting ligand Harmony®”. The “level of RFP induction, comparison of ligands” value in assay [2] (100 and 500 ppb) is on record as “induced to a greater level than chlorsulfuron”. Moreover, the “RFP Score” value in assay [2] (100 ppb) is listed as 1-2; in assay [2] (500 ppb), 4. For the same molecule, the SU-inducible excision result in assay [6] and in assay [7] was “yellow fluorescent sectors were observed” throughout. In addition, the SU-inducible inversion entry in assay [8] is “sectors exhibiting only yellow fluorescent”.
